Experimental data reported in PubChem BioAssay (NCI).
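GI50: concentration for 50% inhibition of growth. TGI denotes the concentration required for complete inhibition of growth.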

Assays:
Experiment in all cases: DTP human tumour cell line panel, 384-well format
[1] = tested on: SK-MEL-5 melanoma
[2] = tested on: HCT-116 colon
[3] = tested on: MDA-MB-231 breast
[4] = tested on: SR leukemia
[5] = tested on: CAKI-1 renal
[6] = tested on: SF-539 CNS
[7] = tested on: KM12 colon
[8] = tested on: NCI-H322M lung
[9] = tested on: HS 578T breast
[10] = tested on: RPMI-8226 leukemia
[11] = tested on: DU-145 prostate
[12] = tested on: 786-0 renal
[13] = tested on: ACHN renal
[14] = tested on: SN12C renal
[15] = tested on: MOLT-4 leukemia
[16] = tested on: HT29 colon
[17] = tested on: MDA-MB-435 melanoma
[18] = tested on: PC-3 prostate
[19] = tested on: UO-31 renal
[20] = tested on: MALME-3M melanoma
[21] = tested on: MDA-MB-468 breast
[22] = tested on: T-47D breast
[23] = tested on: K-562 leukemia
[24] = tested on: SNB-19 CNS
[25] = tested on: SNB-75 CNS
[26] = tested on: NCI-H522 lung
[27] = tested on: NCI-H460 NSCLC
[28] = tested on: NCI/ADR-RES ovarian
[29] = tested on: HOP-62 NSCLC
[30] = tested on: SK-OV-3 ovarian
[31] = tested on: SK-MEL-28 melanoma
[32] = tested on: SF-268 CNS
[33] = tested on: OVCAR-4 ovarian
[34] = tested on: SF-295 CNS
[35] = tested on: SK-MEL-2 melanoma
[36] = tested on: BT-549 breast
[37] = tested on: A549 NSCLC
[38] = tested on: A498 renal
[39] = tested on: HL-60(TB) leukemia
[40] = tested on: MCF7 breast
[41] = tested on: LOX IMVI melanoma
[42] = tested on: UACC-257 melanoma
[43] = tested on: OVCAR-5 ovarian
[44] = tested on: HCT-15 colon
[45] = tested on: HCC-2998 colon
[46] = tested on: UACC-62 melanoma
[47] = tested on: NCI-H226 lung
[48] = tested on: EKVX NSCLC
[49] = tested on: NCI-H23 lung
[50] = tested on: OVCAR-8 ovarian
[51] = tested on: IGROV1 ovarian
[52] = tested on: SW-620 colon
[53] = tested on: HOP-92 NSCLC
[54] = tested on: TK-10 renal
[55] = tested on: M14 melanoma
[56] = tested on: U251 glioblastoma

## Cc1cnc(-c2ccc(-c3ccc(NC(=O)Nc4c(F)cc(F)cc4F)cc3F)c3c2C(=O)NC3)[nH]1
[1]
  GI50: 367 nM
  TGI: 1520 nM
[2]
  GI50: 153 nM
  TGI: 1680 nM
[3]
  GI50: 1030 nM
  TGI: 2350 nM
[4]
  GI50: < 10 nM
[5]
  GI50: 1080 nM
  TGI: 2320 nM
[6]
  GI50: 305 nM
  TGI: 1870 nM
[7]
  GI50: < 10 nM
  TGI: 1140 nM
[8]
  GI50: 1300 nM
  TGI: 3110 nM
[9]
  GI50: 232 nM
  TGI: 653 nM
[10]
  GI50: 19.1 nM
  TGI: 386 nM
[11]
  GI50: 463 nM
  TGI: 1880 nM
[12]
  GI50: 575 nM
  TGI: 1890 nM
[13]
  GI50: 957 nM
  TGI: 4520 nM
[14]
  GI50: 462 nM
  TGI: 2000 nM
[15]
  GI50: < 10 nM
[16]
  GI50: 1060 nM
  TGI: 2270 nM
[17]
  GI50: 397 nM
  TGI: 1760 nM
[18]
  GI50: 1190 nM
  TGI: 2440 nM
[19]
  GI50: 161 nM
  TGI: 7350 nM
[20]
  GI50: 52.2 nM
  TGI: 727 nM
[21]
  GI50: < 10 nM
  TGI: 434 nM
[22]
  GI50: 1600 nM
  TGI: 3000 nM
[23]
  GI50: 227 nM
  TGI: 1350 nM
[24]
  GI50: 1250 nM
  TGI: 2620 nM
[25]
  GI50: 340 nM
  TGI: 897 nM
[26]
  GI50: 1140 nM
  TGI: 2400 nM
[27]
  GI50: < 10 nM
  TGI: 201 nM
[28]
  GI50: > 100000 nM
  TGI: > 100000 nM
[29]
  GI50: 227 nM
  TGI: 1270 nM
[30]
  GI50: 341 nM
  TGI: 1530 nM
[31]
  GI50: 633 nM
  TGI: 2090 nM
[32]
  GI50: 277 nM
  TGI: 1500 nM
[33]
  GI50: 196 nM
  TGI: 452 nM
[34]
  GI50: 1120 nM
  TGI: 2420 nM
[35]
  GI50: 395 nM
  TGI: 1470 nM
[36]
  GI50: 214 nM
  TGI: 981 nM
[37]
  GI50: 616 nM
  TGI: 2150 nM
[38]
  GI50: 165 nM
  TGI: 1160 nM
[39]
  GI50: < 10 nM
  TGI: 121 nM
[40]
  GI50: 324 nM
  TGI: 1490 nM
[41]
  GI50: 345 nM
  TGI: 1690 nM
[42]
  GI50: 856 nM
  TGI: 2140 nM
[43]
  GI50: 1240 nM
  TGI: 2870 nM
[44]
  GI50: 748 nM
  TGI: 13100 nM
[45]
  GI50: 1270 nM
  TGI: 2690 nM
[46]
  GI50: 219 nM
  TGI: 1340 nM
[47]
  GI50: 1360 nM
  TGI: 2740 nM
[48]
  GI50: 816 nM
  TGI: 3570 nM
[49]
  GI50: 450 nM
  TGI: 1700 nM
[50]
  GI50: 1090 nM
  TGI: 2340 nM
[51]
  GI50: 1300 nM
  TGI: 6510 nM
[52]
  GI50: 234 nM
  TGI: 1310 nM
[53]
  GI50: 1460 nM
  TGI: 2790 nM
[54]
  GI50: 1130 nM
  TGI: 2420 nM
[55]
  GI50: 157 nM
  TGI: 1230 nM
[56]
  GI50: 623 nM
  TGI: 1960 nM
